Our source for the viability values is paper PMC12040169 (PLOS Biology, 2025).

Molecules are shown by their SMILES.

The nature of the series: in vitro. Conditions: human, hela cells, % viability.

`O=C(CCCN1C(=O)c2cccc3cccc(c23)C1=O)Nc1cccnc1` [CBK262560]: the viability at 28.5 h, 10 µM amounted to 81.5%.
For `CCn1c(C)cc2cc(NS(=O)(=O)c3cn(C)nc3C)ccc21` [CBK282789], the viability at 28.5 h, 10 µM stood at 93.5%.
Turning to `CC(=O)CCc1oc2c([N+](=O)[O-])cccc2c1-c1ccc(C)o1` [CBK262476], the viability at 28.5 h, 10 µM amounted to 89.4%.
On to `CN1CCC(Oc2nc3cc(Cl)c(Cl)cc3nc2N2CCCC2)CC1` [CBK115290], for which the viability at 28.5 h, 10 µM is 82.2%.
With `CC(=O)Nc1ccc(S(=O)(=O)Nc2ccc(S(=O)(=O)Nc3ccc(C)c(C)c3)cc2)cc1` [CBK264643], the viability at 28.5 h, 10 µM worked out at 101%.
On to `O=C(Nc1cccnc1N1CCNCC1)c1ccc(-c2cccc(C(F)(F)F)c2)o1` [CBK034119T], for which the viability at 28.5 h, 10 µM came to 90.1%.
Same read-out and setting: the figure for `OCc1cccc(-c2nccnc2NCC(O)COc2ccccc2)c1` (centres unmarked) [CBK036842] is 94.3%; for `COc1ccc(C2CCN(Cc3ccncc3)CC2)cc1` [CBK283563] it is 95.8%; for `CCCCn1nc2[nH]c(=O)cc(C(F)F)c2c1C` [CBK288011] it is 93.8%.
On the same count and under the same terms, the figure for `COc1cccc(N2CCN(CC(=O)N3CCC(C(N)=O)CC3)CC2)c1` [CBK202881] is 106%.
Still for that read-out and setting: the figure for `NS(=O)(=O)c1ccc(S(=O)(=O)NCCc2c[nH]c3ccccc23)cc1` [CBK266691] is 82.2%.
As to `COc1ccc(C(=O)N2CCC3(CCCN(CCCn4c(=O)[nH]c5ccccc54)C3)C2)cc1OC` (centres unmarked) [CBK132856], the viability at 28.5 h, 10 µM was 93.1%.
The same measure, in the same setting: the figure for `CC1CC(C)CN(C(=O)CN2C3CCC2CC(O)(c2ccco2)C3)C1` (centres unmarked) [CBK284032] is 92.5%.
On the same count and under the same terms, the figure for `C#CCOc1cncc(Cl)n1` [CBK113370] is 87.7%; for `CCN(CC(=O)N1CCN(c2cc(Cl)ccc2C)CC1)S(=O)(=O)c1ccc2ccccc2c1` [CBK268827] it is 92.8%.
Consider `Cc1cccc(N2C(=O)NC(=O)/C(=C/NC3CCN(Cc4ccccc4)CC3)C2=O)c1` [CBK261827], for which the viability at 28.5 h, 10 µM (bulk resorufin, single well) worked out at 92.2%.
Turning to `O=C(Nc1ccsc1C(=O)O)c1ccccc1Cl` [CBK152440], the viability at 28.5 h, 10 µM stood at 98.4%.
Turning to `FC(F)(F)c1ccc(SCc2ccc(Cl)c(Cl)c2)nc1` [CBK103713], the viability at 28.5 h, 10 µM is 95.3%.
Same read-out and setting: the figure for `CC(C)(C)NC(=O)CSc1nnc(Cc2cccc3ccccc23)n1-c1ccccc1` [CBK266039] is 118%; for `CO[C@H]1CN(C)C[C@@H]1NC(=O)c1cccc2c1NCCC2` [CBK307107] it is 106%; for `COc1ccc(-c2ccc(-c3cc(C(=O)O)c4ccccc4n3)o2)cc1` [CBK300542] it is 75.5%.
Still for that read-out and setting: next, `Brc1cccc(OCc2cccs2)c1` [CBK176011]: 99%.
Still for that read-out and setting: next, `C=CCNc1nccnc1-c1ccncc1` [CBK036845]: 90.7%; `Fc1ccc(CN2CCC(c3nnc4n3CCCCC4)CC2)cc1F` [CBK283356]: 86.3%; `O=C(CSc1ncnc2c1oc1ccccc12)Nc1ccccc1F` [CBK287393]: 87.3%.
`Cc1cccc(N/C=C(/C#N)c2nc(-c3ccc4c(c3)OCO4)cs2)c1C` [CBK263013]: the viability at 28.5 h, 10 µM turned out to be 96.4%.
On the same count and under the same terms, next, `CCn1c(C(O)c2ccccc2)n[nH]c1=S` (centres unmarked) [CBK015110]: 90.5%; `O=S(=O)(c1ccc(C(F)(F)F)cc1Cl)N1CCN(Cc2ccc3cccc(O)c3n2)CC1` [CBK063073]: 94.1%.
The same measure, in the same setting: next, `O=C(Cn1nc2n(c1=O)CCCCC2)NCC(O)c1ccc(F)cc1` (centres unmarked) [CBK305187]: 95.6%; `O=C(NCc1ccccn1)C1CCN(S(=O)(=O)c2ccc(Cl)cc2)CC1` [CBK264959]: 90.2%; `C=CCNC(=O)N[C@H]1CCN2C(=O)c3ccc(Cl)cc3NC(=O)[C@@H]2C1` [CBK289569]: 95.9%.
Take `CCN1CCCC1CN(Cc1ccccn1)Cc1ccco1` (centres unmarked) [CBK283161]: the viability at 28.5 h, 10 µM came to 91.3%.
On the same count and under the same terms, the figure for `NS(=O)(=O)c1ccc(NC(=O)CSc2ccc3ccccc3n2)cc1` [CBK265663] is 74.6%; for `COc1cncc(-c2cncc(Nc3cc(OC)c(OC)c(OC)c3)n2)c1` [CBK065397] it is 95.1%; for `CN(C(=O)CN1CSCC1=O)c1nc2c(s1)CC(c1ccccc1)CC2` (centres unmarked) [CBK305526] it is 91.6%.
The same measure, in the same setting: next, `Cc1cc(C(=O)NCCn2ccnc2C)c2ccccc2n1` [CBK281895]: 100%.
Still for that read-out and setting: the figure for `CCN(CC)C(=O)C1CCCN(C(=O)NCCc2c[nH]cn2)C1` (centres unmarked) [CBK156124] is 96.9%; for `COc1ccc(-c2nc(NC(=O)CSc3nnc(C)s3)ns2)cc1` [CBK267290] it is 96.9%; for `COc1ccccc1CN[C@@H]1CCC[C@H]1Cc1cc(C)no1` [CBK283005] it is 103%.
Take `Cc1cc(-c2nnc(SCC(=O)N3CCCCC3)o2)no1` [CBK268731]: the viability at 28.5 h, 10 µM was determined as 86.6%.
Still for that read-out and setting: next, `Cc1cc(O)cc(O)c1/C=N\NC(=O)C1COc2cc3ccccc3cc2O1` (centres unmarked) [CBK262809]: 80.4%.
On the same count and under the same terms, the figure for `COc1ccc(CNCc2cccc(OC)c2OC)cc1Br` [CBK074479] is 113%; for `Cc1ccc(OCC(=O)Nc2sc(C)c(C)c2C#N)c([N+](=O)[O-])c1` [CBK268162] it is 101%; for `COc1cccc(OC)c1OCCNC1CCc2cc(Cl)ccc2C1` (centres unmarked) [CBK013079C] it is 88.9%.
For the compound `Cc1cc(C)nc(NC(=O)c2cccc(Cl)c2)n1` [CBK288165], the viability at 28.5 h, 10 µM amounted to 90%.
`c1cc(Sc2nccnc2N2CCCC2)ccn1` [CBK093807]: the viability at 28.5 h, 10 µM is 92.3%.
On the same count and under the same terms, next, `CC(C)(C)OC(=O)N1CCC(CNS(=O)(=O)c2cccs2)CC1` [CBK086019]: 100%; `O=C(CN(c1ccc(I)cc1)S(=O)(=O)c1ccccc1)NCC1CCCO1` (centres unmarked) [CBK266278]: 101%.
Regarding `CCOCCC(=O)N/N=C(/C)c1ccc(Cl)s1` [CBK007454], the viability at 28.5 h, 10 µM amounted to 94.8%.
Still for that read-out and setting: next, `N#C/C(=C/c1ccccc1OCc1cccc([N+](=O)[O-])c1)c1ccc(C(=O)O)cc1` [CBK268748]: 96.2%; `CCn1cc(C(=O)N2CCN(Cc3ccco3)C[C@@H]2C(C)C)c(C)n1` [CBK285488]: 110%; `CCCC(=O)N1CCC(Cc2ccc(-c3cccc(C)c3)cc2)(C(=O)NC)CC1` [CBK285786]: 104%.
Same read-out and setting: the figure for `COc1ccccc1OCC(=O)Nc1cnc(-c2cccc(C)c2)c(-c2cccnc2)n1` [CBK037112] is 84.1%; for `Fc1ccc(-c2ccc(Nc3cccnc3)nc2)cc1Cl` [CBK037642] it is 93%.
On the same count and under the same terms, the figure for `Cc1cc(Br)c(NCC(=O)N/N=C/c2ccc(O)cc2)c(Br)c1` [CBK263506] is 101%; for `CCn1cc(CN(CCCn2ccnc2)Cc2cccc(F)c2)cn1` [CBK283124] it is 107%; for `CN(CC(=O)O)C(=O)c1ccc(S(=O)(=O)N2CCCC2)cc1` [CBK265724] it is 91.8%.
`CN1CCN(C(=O)Cn2cc(C(=O)NC3CCCCC3)ccc2=O)C(c2ccccc2)C1` (centres unmarked) [CBK286102]: the viability at 28.5 h, 10 µM was determined as 87.3%.
Same read-out and setting: the figure for `Cc1cc(C)n(CCCC(=O)N2CCOCC(O)(CN3CCCC3)C2)n1` (centres unmarked) [CBK306550] is 101%.
The same measure, in the same setting: the figure for `O=C(O)[C@@H]1CCCN1C(=O)CCn1nnc2ccccc2c1=O` [CBK286765] is 83.6%; for `CN(C)C[C@H]1CC[C@]2(CC1)CN(C(=O)C1CC1)Cc1ccccc1O2` [CBK284920] it is 101%.
Turning to `Cc1cc(CN2CCN(S(=O)(=O)c3ccc(C(F)(F)F)cc3Cl)CC2)cc(C)c1O` [CBK063074], the viability at 28.5 h, 10 µM was 103%.
As to `O=C(NCc1c(F)cccc1F)c1ccc(-c2ccc(OC(F)(F)F)cc2)nc1` [CBK161007T], the viability at 28.5 h, 10 µM stood at 97.6%.
The same measure, in the same setting: next, `c1ccc(OCc2nn3c(Cn4nnc5ccccc54)nnc3s2)cc1` [CBK268330]: 95.9%; `COc1ccc([C@@]23CC[C@H](NC(=O)Nc4ccc(F)c(F)c4)C[C@@H]2N(Cc2ccccc2)CC3)cc1OC` [CBK041333T]: 94.5%; `Cc1cc(NC(=O)Cn2nc(C(F)(F)F)c(Cl)c2C)no1` [CBK018709]: 87.3%.
Still for that read-out and setting: the figure for `Cc1ccc(Cc2cnc(NC(=O)C3CNC(=O)N3)s2)cc1F` (centres unmarked) [CBK305919] is 97.8%.
As to `CC(=O)Nc1ccc(S(=O)(=O)Nc2ccc(-c3csc(C)n3)cc2)cc1` [CBK266261], the viability at 28.5 h, 10 µM worked out at 85.7%.
On the same count and under the same terms, next, `O=C(O)c1ccc(N2C(=O)CC(N3CCN(C/C=C/c4ccccc4)CC3)C2=O)cc1` (centres unmarked) [CBK261402]: 92.6%; `Cc1ccc(C(=O)NNC(=O)c2cccnc2)cc1` [CBK261045]: 94%.
Still for that read-out and setting: the figure for `CC(C#N)(NC(=O)COc1ncnc2sc3c(c12)CCC3)C1CC1` (centres unmarked) [CBK306333] is 88.1%; for `c1ccc(Nc2ccccc2Nc2ccccn2)nc1` [CBK261806] it is 93.5%.
The same measure, in the same setting: next, `CN(Cc1ccccc1)C(C#N)c1c[nH]c2ccccc12` (centres unmarked) [CBK087062]: 95.3%.
As to `COc1ccc2nc(N3CCc4ccccc4C3)sc2c1` [CBK287493], the viability at 28.5 h, 10 µM was 102%.
Consider `Cc1cc(C)n2nc(CC(=O)N3CCCC3c3ccccn3)nc2n1` (centres unmarked) [CBK304408], for which the viability at 28.5 h, 10 µM amounted to 90.8%.
Same read-out and setting: the figure for `CCOc1ncccc1NC(=O)C(C)n1cccn1` (centres unmarked) [CBK245377] is 105%; for `Cc1nnc(Nc2ccc(F)cc2)c2ccccc12` [CBK287873] it is 93.9%; for `CNc1c(C)cc([N+](C)(C)C)cc1C` [CBK261007I] it is 95.3%.
Regarding `CCOCCCn1c(SCC(=O)NC(Cc2ccccc2)C(=O)O)nc2ccccc2c1=O` (centres unmarked) [CBK297132], the viability at 28.5 h, 10 µM was determined as 90.5%.
On the same count and under the same terms, next, `FC(F)(F)c1nc2ccccc2nc1SCc1ccco1` [CBK107201]: 85.9%.
